# Measured values published in patent publication US9578880B2, “Acetyl co-enzyme A carboxylase herbicide resistant plants” (Colorado Wheat Research Foundation, Inc., priority 2011, dated 2017).
# Experiments:
# [1] = tested on: non-mutant Hatcher winter wheat (Accession 0); assay: Cross-resistance study, plant survival after other ACCase herbicides (non-mutant check); format: in vivo, Triticum aestivum L.; details: Accession 0 (non-mutant check); clethodim 65, sethoxydim 264, fluazifop 361 g ai ha^-1, clethodim + 10.5 g ai ha^-1 quizalofop; 28 DAT
# Description: (§1) A cross-resistance study was conducted within the ACCase herbicide mode of action using herbicides normally lethal to wheat. Clethodim, sethoxydim, and fluazifop were used at rates of 65, 264, and 361 g ai ha^−1, plus a treatment of clethodim and 10.5 g ai ha^−1 quizalofop. Seven DAT the tops of plants were cut off above the newest above-ground growing point. Binomial evaluation of plant survival was performed 28 DAT. Tolerance of quizalofop mutants to clethodim and sethoxydim was low (Table 1). The presence of any cross tolerance presents evidence that combining multiple homologous resistant ACCase genes into a single plant could lead to resistance to additional herbicides. At this stage only a third of the total ACCase in the plant would have a mutation and contain tolerance to ACCase inhibitors if the mutation is target-site-based.
# [2] = tested on: quizalofop tolerant mutant wheat accessions; assay: Cross-resistance study, plant survival after other ACCase herbicides (quizalofop tolerant mutants); format: in vivo, Triticum aestivum L.; details: 28 DAT
# Description: as §1
# [3] = tested on: quizalofop-tolerant wheat accessions vs non-mutant Hatcher wheat; assay: Visual evaluation of injury to quizalofop; format: in vivo, Triticum aestivum L.; details: 21.05 g ai ha^-1; 28 DAT; nearly all of 18 quizalofop-tolerant accessions
# Description: 18 quizalofop-tolerant accessions were treated with 21.05 g ai ha^−1 quizalofop, a discriminating dose based on previous studies. Plants were evaluated 28 days after treatment (DAT) for visible injury to quizalofop on a scale of 0 to 100%, with 0 being no injury and 100 being complete desiccation. Nearly all accessions evaluated in this study appeared more tolerant to quizalofop than non-mutant Hatcher wheat (FIG. 5). The accessions contained few completely dead plants, with the exception of the one accession not different than the background.
# [4] = tested on: ACCase of non-mutagenized Hatcher winter wheat; assay: In-vitro ACCase enzyme assay; format: biochemical, Triticum aestivum L.; details: 0.1, 1, 10, 100 μM
# Description: (§2) An in-vitro enzyme assay was conducted to observe ACCase in conjunction with quizalofop directly to determine if the presence of ACCase mutations decreases the ability of herbicides to inhibit ACCase activity. Four quizalofop concentrations of 0.1, 1, 10, and 100 μM were included in the assay along with a non-treated control. The experiment included four accessions which included a representative from the three mutations detected and non-mutagenized wheat. […] Calculated at the I25 level, the resistant to susceptible value for the A genome was 4.57, the B genome was 3.57 and the D genome was 10.86.
# [5] = tested on: ACCase, A genome nucleotide substitution (Ala2004Val); assay: In-vitro ACCase enzyme assay; format: biochemical, Triticum aestivum L.
# Description: as §2
# [6] = tested on: ACCase, B genome nucleotide substitution (Ala2004Val); assay: In-vitro ACCase enzyme assay; format: biochemical, Triticum aestivum L.
# Description: as §2
# [7] = tested on: ACCase, D genome nucleotide substitution (Ala2004Val); assay: In-vitro ACCase enzyme assay; format: biochemical, Triticum aestivum L.; details: for ACCase tolerance compared with background: D genome substitution
# Description: as §2
# [8] = Accession 1, clethodim 65, sethoxydim 264, fluazifop 361 g ai ha^-1, clethodim + 10.5 g ai ha^-1 quizalofop
SMILES,survival after application of ACCase herbicide [1],"survival after application of ACCase herbicide [2, 8]","survival after application of ACCase herbicide ([2]; Accession 2, same rates)","survival after application of ACCase herbicide ([2]; Accession 3, same rates)","survival after application of ACCase herbicide ([2]; Accession 4, same rates)","survival after application of ACCase herbicide ([2]; Accession 5, same rates)","survival after application of ACCase herbicide ([2]; Accession 6, same rates)","survival after application of ACCase herbicide ([2]; Accession 7, same rates)","survival after application of ACCase herbicide ([2]; Accession 8, same rates)","survival after application of ACCase herbicide ([2]; Accession 9, same rates)","survival after application of ACCase herbicide ([2]; Accession 10, same rates)","survival after application of ACCase herbicide ([2]; Accession 11, same rates)","survival after application of ACCase herbicide ([2]; Accession 12, same rates)","survival after application of ACCase herbicide ([2]; Accession 13, same rates)","survival after application of ACCase herbicide ([2]; Accession 14, same rates)","survival after application of ACCase herbicide ([2]; Accession 15, same rates)","survival after application of ACCase herbicide ([2]; Accession 16, same rates)","survival after application of ACCase herbicide ([2]; Accession 17, same rates)",further results
"CCC/C(=N\OCC)C1=C(O)CC(CC(C)SCC)CC1=O (stereo not shown) [Sethoxydim, sethoxydim]",0%,0%,0%,0%,0%,0%,0%,0%,0%,0%,0%,8%,8%,0%,0%,0%,0%,0%,"Tolerance of quizalofop mutants (cross-resistance) ([2]; clethodim 65, sethoxydim 264 g ai ha^-1): low"
"CCSC(C)CC1CC(=O)C(/C(CC)=N/OC/C=C/Cl)=C(O)C1 (stereo not shown) [Clethodim, clethodim]",0%,10%,0%,0%,0%,0%,0%,0%,25%,17%,0%,0%,17%,0%,0%,0%,0%,0%,
"CC(Oc1ccc(Oc2ccc(C(F)(F)F)cn2)cc1)C(=O)O (stereo not shown) [Fluazifop, fluazifop]",0%,0%,0%,0%,0%,0%,0%,0%,0%,0%,0%,0%,0%,0%,0%,0%,0%,0%,
CC(Oc1ccc(Oc2cnc3cc(Cl)ccc3n2)cc1)C(=O)O (stereo not shown) [quizalofop],,,,,,,,,,,,,,,,,,,"visible injury, tolerance of accessions compared with non-mutant Hatcher wheat [3]: more tolerant; sensitivity of ACCase compared with the mutant accessions [4]: greater sensitivity; ACCase tolerance compared with background ([5]; 100 μM, A genome substitution): higher than background tolerance; resistant to susceptible value calculated at the I25 level ([5]; A genome mutant vs non-mutagenized wheat): 4.57; ACCase tolerance compared with background ([6]; 10 μM, B genome substitution): higher than background levels of tolerance; resistant to susceptible value calculated at the I25 level ([6]; B genome mutant vs non-mutagenized wheat): 3.57; ACCase tolerance compared with background ([7]; 10 μM): higher than background levels of tolerance; ACCase tolerance compared with background ([7]; 100 μM): higher than background tolerance; resistant to susceptible value calculated at the I25 level ([7]; D genome mutant vs non-mutagenized wheat): 10.86"
